Results taken from patent EP4778516A1, “CALCIFICATION ENHANCER FOR OSTEOBLAST MC3T3-E1 CELL” (Watanabe Oyster Laboratory Co., Ltd., priority 2023, dated 2025).
Where two headings read alike, the source gives them in different places.

Key:
MC3T3-E1 cells [1] = assay: Crosstalk (Transwell co-culture) between MC3T3-E1 cells and RAW264.7 cells; type: cell-based, mouse; conditions: DHMBA 1 or 10 mM
Procedure: To investigate crosstalk between osteoblast MC3T3-E1 cells and macrophage RAW264.7 cells, an assay was performed using Transwell chambers (Corning Inc., Life Sciences, catalog no. CLS3464-48EA, USA) equipped with a polycarbonate filter (pore size […], diameter 6.5 mm). MC3T3-E1 cells (1×10^5 cells per 1 ml medium) were added in a-MEM medium (1 ml) containing 10% FBS and 1% P/S in the lower chamber. RAW264.7 cells were suspended in DMEM containing 10% FBS and 1% P/S, and 0.5 ml of the suspension (5×10^4 cells/ml medium) was added to the upper chamber of each Transwell. RAW264.7 cells were incubated at 37°C for 1 hour under 5% CO2 and 95% air to allow attachment to the upper chamber. The plates equipped with the Transwell chambers were then placed in an incubator at 37°C under 5% CO2 and 95% air. To induce inflammatory conditions in RAW264.7 cells, LPS (100 ng/ml medium) was added to the upper chamber containing RAW264.7 cells. […] MC3T3-E1 cells attached to the dishes (wells) were counted as described in the section "Cell proliferation assay". […]
Thereafter, a Transwell chamber was placed in each culture well, and RAW264.7 cells were added to the upper chamber at 0.5 ml (5×10^4 cells/ml medium), in the presence or absence of LPS (100 ng/ml medium). […] Cells attached to the dishes (wells) were counted as described in the section "Cell proliferation assay".

MC3T3-E1 cells [2] = assay: Osteoblast differentiation assay and Alizarin Red S staining (calcification); type: cell-based, mouse
Procedure: MC3T3-E1 cells (10^5 cells/ml medium per well in a 12-well plate) were cultured for 3 days in a-MEM (1.0 ml per well) containing 10% FBS and 1% P/S. Thereafter, the medium was replaced, as previously described, with calcification-promoting medium, that is, a-MEM supplemented with 10% FBS, 1% P/S, L-ascorbic acid ([…]), and 4 mM b- glycerophosphoric acid. DHMBA was added at a concentration of 1 or 10 mM, and the cells were cultured for 18 days, with the medium replaced every 3 days with fresh medium. On day 18 of culture, the cells were rinsed with PBS and fixed by addition of ice-cold 75% ethanol at 4°C for 30 minutes. Then, calcium deposition was visualized by staining with Alizarin Red S (40 mM, pH 6.2). After incubation at room temperature for 30 minutes, the staining solution was removed by thorough washing with distilled water. Stained cells on the plates were photographed under a microscope (×40) (Olympus IX71, Olympus Corp., Tokyo, Japan) and imaged using ImageJ2 software. For quantification, the stained cells in each plate were solubilized by addition of 10% cetylpyridinium chloride solution, and absorbance was measured at 570 nm.

[3] = cited from earlier work; for peroxyl radical scavenging activity relative to Trolox: greater than Trolox
MC3T3-E1 cells [4] = assay: Cell proliferation assay (cell counting); type: cell-based, mouse
Procedure: To examine progression of cell proliferation, MC3T3-E1 cells (1×10^5/ml medium per well) were cultured using a 24-well plate in a-MEM supplemented with 10% FBS and 1% P/S at 37°C in a water-saturated atmosphere containing 5% CO2 and 95% air. The cells were cultured for 1, 2, 3, 4, or 5 days in the presence of a vehicle (1% ethanol as final concentration) or DHMBA (10 mM). In another experiment, to evaluate the effects of increased concentrations of DHMBA on MC3T3-E1 cells, the cells (1×10^5/ml per well) were cultured using a 24-well plate in DMEM (containing 10% FBS and 1% P/S). The cells were cultured for 3 days in the presence of either a reagent vehicle (1% ethanol as final concentration) or DHMBA (0.1, 1, 10, 100, or 1000 mM).
To evaluate the effects of DHMBA on cell death of osteoblasts MC3T3-E1, the cells (1×10^5/ml medium per well in a 24-well plate) were cultured in a-MEM containing 10% FBS and 1% P/S. After culturing for 3 days until reaching subconfluence, either a reagent vehicle (1% ethanol as final concentration) or DHMBA (0.1, 1, 10, 100, or 1000 mM) was added, and the cells were further cultured for 48 hours. After culture, to count the number of cells attached to each well, a […] containing 0.05% trypsin and EDTA (0.1 ml per well) was added, and then the culture plates were incubated at 37°C for 2 minutes. Subsequently, a-MEM (0.9 ml) containing 10% FBS and 1% P/S was added, and the cells were detached and mixed by pipetting. The cell suspension (0.1 ml) was mixed with 0.1 ml of 0.5% trypan blue staining solution. By this staining, […]. Viable cells were counted under a microscope (Olympus MTV-3) using a hemocytometer (Sigma-Aldrich, St. Louis, MO) and a cell counter (H-102P, Line Seiki Co., Ltd., Tokyo, Japan), and the average of two counts was calculated. Cell numbers were expressed as the number per well.

RAW264.7 cells = assay: TNF-a production assay (ELISA); type: cell-based, mouse; conditions: LPS 10 or 100 ng/ml, DHMBA 1 or 10 mM; Fig. 7A
Procedure: RAW264.7 cells (1× 10^5/ml per well) were cultured in DMEM containing 10% FBS and 1% P/S in a 24-well plate for 3 days until reaching subconfluence. […] The cells were detached from each culture dish to count the cell numbers as described in the section "Cell proliferation assay". […] The concentration of TNF-a in the medium was analyzed using a mouse TNF-a ELISA kit (catalog no. KHC301) purchased from Cayman Chemical Company (Ann Arbor, MI, USA) in accordance with the manufacturer's instructions. TNF-a production was expressed as the amount of TNF-a secreted into the medium in picograms per milliliter (pg/ml).

COc1c(O)cc(CO)cc1O [DHMBA, 3,5-dihydroxy-4-methoxybenzyl alcohol]
decrease of proliferation of MC3T3-E1 cells by co-culture with RAW264.7 cells (MC3T3-E1 cells [1]; LPS 100 ng/ml in upper chamber, 3 days, Fig. 5C): suppressed | enhancement of death of MC3T3-E1 cells by co-culture with RAW264.7 cells (MC3T3-E1 cells [1]; LPS 100 ng/ml, 48 hours, Fig. 5D): prevented | calcification of MC3T3-E1 cells (MC3T3-E1 cells [2]; DHMBA 1 or 10 mM, 18 days in calcification-promoting medium, Alizarin Red, absorbance 570 nm, Figs. 2A and 2B): enhanced | TNF-a-induced suppression of calcification of osteoblasts (MC3T3-E1 cells [2]; TNF-a 1 ng/ml plus DHMBA 1 or 10 mM, 18 days, Fig. 4): suppressed | reaction with HOO(•) ([3]; compared with other known antioxidants such as resveratrol and ascorbic acid): more rapidly | peroxyl radical scavenging activity relative to Trolox ([3]; in aqueous media): four orders of magnitude | peroxyl radical scavenging activity relative to Trolox ([3]; in lipid media): approximately 15 fold | proliferation of MC3T3-E1 cells (MC3T3-E1 cells [4]; DHMBA 10 mM, cultured 1, 2, 3, 4, or 5 days, vs vehicle (1% ethanol), Fig. 1A): no significant change | proliferation of MC3T3-E1 cells (MC3T3-E1 cells [4]; DHMBA 0.1, 1, 10, or 100 mM, 3 days, Fig. 1B): not changed | cell proliferation (MC3T3-E1 cells [4]; DHMBA 1000 mM (highest concentration tested), 3 days, Fig. 1B): significant decrease | TNF-a-induced inhibition of cell proliferation (MC3T3-E1 cells [4]; TNF-a 1 or 10 ng/ml plus DHMBA 1 or 10 mM, 3 days, Fig. 3A): suppressed | LPS-induced increase of production of TNF-a in RAW264.7 cells (RAW264.7 cells): suppressed
